# Reference: ChEMBL document CHEMBL1201862, “PubChem BioAssay data set” (2004)
# Activity calls are given as the source filed them. For most assays here, no stated cut-off is given here; in the data, actives have a measured IC50 and inactives only a lower limit.
# Columns and labels:
# Paired box protein Pax-8 = Paired box protein Pax-8 (Homo sapiens, UniProt Q06710); experiment: PAX8 transcriptional activity inhibition in RMG-I – RMG-I cells, luciferase, cherry-pick, dose response (AID 687027); assay type: functional, cell-based;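 further: luciferase reporter driven by Pax8 target thyroperoxidase promoter measured by SteadyGlo luminescence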
# Caspase-3 = molecular target: T1, Caspase-3 (Homo sapiens, UniProt P42574); assay type: functional;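 further: Dose-response selectivity test against caspase-3 for candidate inhibitors of sentrin-specific proteases (SENPs)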
# T1 sequence (P42574 whole entry): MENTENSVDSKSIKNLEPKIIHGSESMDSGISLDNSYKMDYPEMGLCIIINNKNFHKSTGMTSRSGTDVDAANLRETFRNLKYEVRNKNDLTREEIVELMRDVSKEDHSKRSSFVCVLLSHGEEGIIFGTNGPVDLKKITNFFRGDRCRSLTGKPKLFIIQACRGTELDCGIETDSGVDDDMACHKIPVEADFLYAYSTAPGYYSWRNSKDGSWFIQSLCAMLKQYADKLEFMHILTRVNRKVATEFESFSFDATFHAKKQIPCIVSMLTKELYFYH
# [1] = molecular target: T2, Mannose-6-phosphate isomerase (Homo sapiens, UniProt P34949); experiment: MPI inhibition at elevated mannose 6-phosphate – biochemical, fluorescence intensity, high mannose 6-phosphate, primary screen (AID 1220)
# T2 sequence (P34949 whole entry): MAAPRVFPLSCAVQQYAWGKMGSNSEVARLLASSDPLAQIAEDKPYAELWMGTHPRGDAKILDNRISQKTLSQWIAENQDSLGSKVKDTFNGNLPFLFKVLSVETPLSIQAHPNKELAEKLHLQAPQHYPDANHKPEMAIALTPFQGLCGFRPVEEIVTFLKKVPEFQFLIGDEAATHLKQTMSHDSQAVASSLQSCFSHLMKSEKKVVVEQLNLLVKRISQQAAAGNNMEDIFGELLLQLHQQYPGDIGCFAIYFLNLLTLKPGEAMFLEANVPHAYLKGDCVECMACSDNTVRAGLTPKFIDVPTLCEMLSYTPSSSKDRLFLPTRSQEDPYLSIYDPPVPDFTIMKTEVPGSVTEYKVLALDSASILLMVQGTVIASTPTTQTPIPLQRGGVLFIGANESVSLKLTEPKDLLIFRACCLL
# [2] = molecular target: T3, Sentrin-specific protease 6 (Homo sapiens, UniProt Q9GZR1); assay type: functional;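 further: Luminescence-based dose-response confirmatory assay of SENP6 inhibition, following up an ultra-high-throughput screen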
# T3 sequence (Q9GZR1 whole entry): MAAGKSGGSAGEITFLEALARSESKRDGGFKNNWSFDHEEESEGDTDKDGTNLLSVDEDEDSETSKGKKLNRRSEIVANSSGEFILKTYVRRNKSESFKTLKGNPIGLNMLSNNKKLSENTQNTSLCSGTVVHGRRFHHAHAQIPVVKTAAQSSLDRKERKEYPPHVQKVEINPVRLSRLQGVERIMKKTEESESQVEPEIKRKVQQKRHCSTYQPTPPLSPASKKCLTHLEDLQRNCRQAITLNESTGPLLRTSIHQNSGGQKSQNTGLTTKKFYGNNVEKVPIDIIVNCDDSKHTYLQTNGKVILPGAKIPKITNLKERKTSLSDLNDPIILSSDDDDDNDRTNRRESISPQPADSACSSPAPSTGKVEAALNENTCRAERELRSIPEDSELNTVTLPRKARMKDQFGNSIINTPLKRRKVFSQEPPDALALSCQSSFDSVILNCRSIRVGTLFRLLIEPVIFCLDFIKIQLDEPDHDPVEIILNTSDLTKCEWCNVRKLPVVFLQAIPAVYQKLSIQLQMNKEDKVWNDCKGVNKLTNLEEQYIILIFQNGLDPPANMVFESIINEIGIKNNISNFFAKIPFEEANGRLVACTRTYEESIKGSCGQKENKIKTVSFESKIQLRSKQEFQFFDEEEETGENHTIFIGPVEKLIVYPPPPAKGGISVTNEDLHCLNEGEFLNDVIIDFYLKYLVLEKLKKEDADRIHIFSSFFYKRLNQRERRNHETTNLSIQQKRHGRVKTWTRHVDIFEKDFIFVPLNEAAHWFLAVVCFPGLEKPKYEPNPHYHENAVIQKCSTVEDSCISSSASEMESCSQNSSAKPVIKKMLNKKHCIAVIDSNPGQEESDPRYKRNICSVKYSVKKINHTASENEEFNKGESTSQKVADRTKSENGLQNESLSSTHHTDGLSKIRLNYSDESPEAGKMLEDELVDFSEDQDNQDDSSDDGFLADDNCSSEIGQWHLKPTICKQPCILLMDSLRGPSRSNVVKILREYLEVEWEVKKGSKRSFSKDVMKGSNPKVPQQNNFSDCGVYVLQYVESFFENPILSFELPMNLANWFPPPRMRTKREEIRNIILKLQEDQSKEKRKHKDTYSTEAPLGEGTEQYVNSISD
# [3] = molecular target: T4, Sentrin-specific protease 7 (Homo sapiens, UniProt Q9BQF6); assay type: functional;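 further: Luminescence-based dose-response confirmation of ultra-high-throughput screening hits, measuring inhibition of SENP7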
# T4 sequence (Q9BQF6 whole entry): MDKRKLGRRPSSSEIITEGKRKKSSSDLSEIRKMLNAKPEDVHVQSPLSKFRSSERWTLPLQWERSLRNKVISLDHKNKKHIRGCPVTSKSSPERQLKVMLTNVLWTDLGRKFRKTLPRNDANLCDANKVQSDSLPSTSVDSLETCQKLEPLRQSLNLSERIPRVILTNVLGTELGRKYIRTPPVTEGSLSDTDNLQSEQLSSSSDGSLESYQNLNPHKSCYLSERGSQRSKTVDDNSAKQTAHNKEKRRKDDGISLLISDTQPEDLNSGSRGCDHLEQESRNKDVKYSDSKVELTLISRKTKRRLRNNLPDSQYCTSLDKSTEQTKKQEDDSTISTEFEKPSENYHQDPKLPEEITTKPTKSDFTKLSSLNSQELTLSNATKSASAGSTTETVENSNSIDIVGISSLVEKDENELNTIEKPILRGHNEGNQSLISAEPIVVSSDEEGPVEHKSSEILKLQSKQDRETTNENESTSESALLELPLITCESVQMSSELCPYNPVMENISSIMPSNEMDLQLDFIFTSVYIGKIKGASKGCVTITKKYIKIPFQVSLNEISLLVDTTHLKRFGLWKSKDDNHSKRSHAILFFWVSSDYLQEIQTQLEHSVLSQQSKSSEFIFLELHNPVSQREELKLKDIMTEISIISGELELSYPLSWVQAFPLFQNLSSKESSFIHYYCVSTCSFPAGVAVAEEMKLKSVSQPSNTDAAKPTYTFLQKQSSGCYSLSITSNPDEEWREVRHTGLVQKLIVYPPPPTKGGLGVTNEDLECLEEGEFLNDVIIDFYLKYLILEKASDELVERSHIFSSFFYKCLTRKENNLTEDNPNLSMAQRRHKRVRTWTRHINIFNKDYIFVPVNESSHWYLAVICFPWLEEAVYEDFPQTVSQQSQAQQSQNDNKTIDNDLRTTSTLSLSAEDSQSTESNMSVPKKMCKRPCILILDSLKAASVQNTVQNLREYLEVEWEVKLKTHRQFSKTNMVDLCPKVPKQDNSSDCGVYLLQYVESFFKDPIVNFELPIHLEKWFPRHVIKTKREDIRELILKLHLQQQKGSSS
# [4] = molecular target: Induced myeloid leukemia cell differentiation protein Mcl-1 (Homo sapiens, UniProt Q07820); assay type: functional
# Sequence of Induced myeloid leukemia cell differentiation protein Mcl-1 (Q07820 whole entry): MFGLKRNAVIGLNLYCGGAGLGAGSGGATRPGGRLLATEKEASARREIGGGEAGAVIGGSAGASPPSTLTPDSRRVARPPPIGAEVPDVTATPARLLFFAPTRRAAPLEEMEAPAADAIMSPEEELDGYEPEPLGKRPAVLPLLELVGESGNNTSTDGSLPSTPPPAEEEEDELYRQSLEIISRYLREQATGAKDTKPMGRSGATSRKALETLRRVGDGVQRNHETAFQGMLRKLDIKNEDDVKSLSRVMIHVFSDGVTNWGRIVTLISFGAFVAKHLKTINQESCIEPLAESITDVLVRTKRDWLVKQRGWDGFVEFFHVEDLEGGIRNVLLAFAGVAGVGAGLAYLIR
# Sequence of Paired box protein Pax-8 (Q06710 whole entry): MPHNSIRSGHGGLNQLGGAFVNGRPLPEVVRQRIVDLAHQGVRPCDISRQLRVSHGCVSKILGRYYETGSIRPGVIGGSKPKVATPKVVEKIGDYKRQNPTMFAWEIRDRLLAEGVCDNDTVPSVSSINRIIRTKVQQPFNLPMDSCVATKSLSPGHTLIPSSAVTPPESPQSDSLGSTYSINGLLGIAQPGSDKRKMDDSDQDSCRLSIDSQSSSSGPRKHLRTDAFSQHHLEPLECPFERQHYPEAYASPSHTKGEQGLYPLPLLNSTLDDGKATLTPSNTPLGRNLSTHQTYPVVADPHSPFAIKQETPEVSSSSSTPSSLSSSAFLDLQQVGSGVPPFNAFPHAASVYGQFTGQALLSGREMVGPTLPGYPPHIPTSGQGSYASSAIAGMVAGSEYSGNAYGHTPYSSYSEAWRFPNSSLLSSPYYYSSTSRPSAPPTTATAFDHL
SMILES,AC50 (Paired box protein Pax-8),IC50 (Caspase-3),IC50 [1],IC50 [2],IC50 [3],IC50 [4]
CCOC(=O)c1c(C)[nH]c2c1-c1ccccc1C(=O)C2=O,1.05 µM (active),–,–,–,–,–
COc1ccc2c(c1)CCC(/C=N/c1ccc3c(c1)OCO3)=C2O,–,65.5 µM (active),15.6 µM (active),8.46 µM (active),13.1 µM (active),16.7 µM (not active)
O=C(c1ccccc1)c1coc2c1C(=O)c1ccccc1C2=O,–,25.7 µM (active),–,4.61 µM (active),12.7 µM (active),–
CC(=O)NC(c1ccc2ccccc2c1)c1ccc2cccnc2c1O (configuration not stated),1.89 µM (active),–,–,–,–,–
CCOC(=O)c1c(C)oc2c1c(/C=N/CCC(=O)O)c(O)c1ccccc12,–,–,> 50 µM (not active),–,–,–
O=[N+]([O-])c1c(NCCO)cc(Sc2nc3ccccc3s2)c2nonc12,–,–,–,–,–,11.1 µM (not active)
